The values below come from US10590070B2, “Compositions and methods for treating and preventing neurodegenerative disorders” (ALZHEON, INC., priority 2015, dated 2020).

For this test, the target named is T1, recombinant Human β-Amyloid Peptide (1-42) (Homo sapiens, UniProt P05067).
T1 construct: recombinant Human β-Amyloid Peptide (1-42); purchased BioLegend 843801
The test is described as follows: Mass spectrometry (MS) binding assay. As to conditions: 22 pmol/μL peptide, 1100 pmol/μL compound (50×); for Number of molecules bound to Aβ42: direct infusion Q-TOF MS, stoichiometry of the binding; for Semiquantitative Estimation: semiquantitative evaluation of the binding compared to a blank. Here is the method: Compounds of the invention were screened by mass spectrometry (“MS”) binding assays to assess the ability of compounds to bind to the protein. Approximately 1 mg of the compound was reconstituted in 1 mL of MilliQ water and vortexed vigorously for 2 minutes until completely in solution. The sample was then diluted to create an approximately 2200 pmol/μL solution. One mg of recombinant Human β-Amyloid Peptide (1-42) from BioLegend (99% purity, cat: 843801) was reconstituted in 200 μL of MilliQ water and vortexed vigorously for 2 minutes to solubilize the peptide creating a 5 mg/mL solution. Samples were then diluted to a final concentration 44 pmol/μL prior to mix with drug solution. Samples were then mixed together for a final concentration of 22 pmol/μL (x) for peptide and 1100 pmol/μL for individual compounds (50×). Samples were infused directly in mass specs after adding 50 μL of 10% formic acid in final solution to increase the ionization. The data acquisition was performed using a Waters time of flight mass spectrometer (Q-TOF Micro). The data was acquired using the scanning mode to allow for the detection of the peptide. Samples were infused at room temperature. The mass spectrometer conditions were maintained throughout the study to ensure consistency of the data. The Waters Qtof conditions were as follows: Samples were directly infused into the mass spectrometer at a flow rate of 20 μL/min using in-build Syringe Pump and Hamilton 1 mL Syringe and the acquisition time was kept 2 minutes. Once acquisition of the samples was completed, the raw data was then analyzed using the Water MassLynx 4.1, SCN744. Stoichiometry of the binding was determined and the semiquantitative evaluation of the binding was compared to a blank.

T1 sequence (P05067 672-713 limits assumed): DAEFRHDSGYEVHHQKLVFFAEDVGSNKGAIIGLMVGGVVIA

Take `NC1CCC(S(=O)(=O)O)C1` (centres unmarked) [Compound 2005, 3-aminocyclopentane-1-sulfonic acid]: the “Number of molecules bound to Aβ42” value was “[+1]” and the “Semiquantitative Estimation” value was “[+]”.
The matching figures for `CC(C)[C@H](N)C(=O)NC1CCC(S(=O)(=O)O)C1` (stereo partly drawn) [Compound 2010, 3-((S)-2-amino-3-methylbutanamido)cyclopentane-1-sulfonic acid]: “[+2]” and “[++]”.
The like results for `CC(C)C[C@H](N)C(=O)NC1CCC(S(=O)(=O)O)C1` (stereo partly drawn) [Compound 2011, 3-((S)-2-amino-4-methylpentanamido)cyclopentane-1-sulfonic acid] were, in that order, “[+1]” and “[+]”.
The matching figures for `N[C@@H](CO)C(=O)NC1CCC(S(=O)(=O)O)C1` (some centres unmarked) [Compound 2012]: “[+4]” and “[++++]”.
Regarding `CS(=O)(=O)CC[C@H](N)C(=O)NC1CCC(S(=O)(=O)O)C1` (stereo partly drawn) [Compound 2014, 3-((S)-2-amino-4-(methylsulfonyl)butanamido)cyclopentane-1-sulfonic acid], the “Number of molecules bound to Aβ42” value is “[+3]” and the “Semiquantitative Estimation” value is “[+++]”.
Consider `N[C@@H](Cc1ccc(O)cc1)C(=O)NC1CCC(S(=O)(=O)O)C1` (stereo partly drawn) [Compound 2015, 3-((S)-2-amino-3-(4-hydroxyphenyl)propanamido)cyclopentane-1-sulfonic acid], for which the “Number of molecules bound to Aβ42” value was “[+3]” and the “Semiquantitative Estimation” value is “[+++]”.
With `O=C(N[C@@H](Cc1ccc(O)cc1)C(=O)NC1CCC(S(=O)(=O)O)C1)OCc1ccccc1` (stereo partly drawn) [Compound 2021, 3-((S)-2-(((benzyloxy)carbonyl)amino)-3-(4-hydroxyphenyl)propanamido)cyclopentane-1-sulfonic acid], the “Number of molecules bound to Aβ42” value is listed as “No Binding”.
Same read-out and setting: the result for `CC(C)C[C@H](NC(=O)OCc1ccccc1)C(=O)NC1CCC(S(=O)(=O)O)C1` (stereo partly drawn) [Compound 2024, 3-((S)-2-(((benzyloxy)carbonyl)amino)-4-methylpentanamido)cyclopentane-1-sulfonic acid] reads “No Binding”.
With `CS(=O)(=O)CC[C@H](NC(=O)OCc1ccccc1)C(=O)NC1CCC(S(=O)(=O)O)C1` (stereo partly drawn) [Compound 2026, 3-((S)-2-(((benzyloxy)carbonyl)amino)-4-(methylsulfonyl)butanamido)cyclopentane-1-sulfonic acid], the “Number of molecules bound to Aβ42” value was “[+2]” and the “Semiquantitative Estimation” value is “[++]”.
The matching figures for `COC(=O)C1CCC(S(=O)(=O)O)C1` (centres unmarked) [Compound 2028, 3-(Methoxycarbonyl)cyclopentane-1-sulfonic acid]: “[+3]” and “[+++]”.
The like results for `O=C(O)C1CCC(S(=O)(=O)O)C1` (centres unmarked) [Compound 2029, 3-Sulfocyclopentane-1-carboxylic acid] were, in that order, “[+3]” and “[+++]”.
On to `O=C(NCc1ccccc1)C1CCC(S(=O)(=O)O)C1` (centres unmarked) [Compound 2030, 3-(benzylcarbamoyl)cyclopentane-1-sulfonic acid], for which the “Number of molecules bound to Aβ42” value was “[+1]” and the “Semiquantitative Estimation” value was “[+]”.
As for `O=C(N[C@@H](Cc1ccccc1)C(=O)O)C1CCC(S(=O)(=O)O)C1` (some centres unmarked) [Compound 2034], the “Number of molecules bound to Aβ42” value is given as “No Binding”.
Regarding `O=C(N[C@@H](CO)C(=O)O)C1CCC(S(=O)(=O)O)C1` (some centres unmarked) [Compound 2037], the “Number of molecules bound to Aβ42” value was “[+1]” and the “Semiquantitative Estimation” value was “[+]”.
The matching figures for `O=C(NCc1ccccc1)[C@@H]1C[C@H](S(=O)(=O)O)CN1` [Compound 2055]: “[+4]” and “[++++]”.
As for `O=C([C@@H]1C[C@H](S(=O)(=O)O)CN1)N(CCO)CCO` [Compound 2059], the “Number of molecules bound to Aβ42” value was “[+2]” and the “Semiquantitative Estimation” value was “[++]”.
Regarding `C[C@H](NC(=O)[C@@H]1C[C@H](S(=O)(=O)O)CN1)C(=O)O` [Compound 2061], the “Number of molecules bound to Aβ42” value was “[+4]” and the “Semiquantitative Estimation” value is “[++++]”.
For `O=C(NC1CCNCC1)[C@@H]1C[C@H](S(=O)(=O)O)CN1` [Compound 2077], the “Number of molecules bound to Aβ42” value is “[+4]” and the “Semiquantitative Estimation” value was “[++++]”.
In the case of `O=C(NCc1ccccc1)[C@@H]1C[C@@H](S(=O)(=O)O)CN1` [Compound 2083], the “Number of molecules bound to Aβ42” value is “[+2]” and the “Semiquantitative Estimation” value was “[++]”.
The like results for `CNC(=O)[C@@H]1C[C@@H](S(=O)(=O)O)CN1` [Compound 2084] were, in that order, “[+5]” and “[+++++]”.
In the case of `CCN(CC)C(=O)[C@@H]1C[C@@H](S(=O)(=O)O)CN1` [Compound 2085], the “Number of molecules bound to Aβ42” value is “[+4]” and the “Semiquantitative Estimation” value was “[++++]”.
The like results for `O=C([C@@H]1C[C@@H](S(=O)(=O)O)CN1)N(CCO)CCO` [Compound 2087] were, in that order, “[+4]” and “[++++]”.
